For data set [1] the following is noted: cited from earlier work.
For data set [2] the following is noted: DEHP used as plasticizer in PVC bags; cited from earlier work.
The procedure of data set [3]:
A composition was prepared containing 4.0 μg Dexmedetomidine and 50 mg dextrose to adjust tonicity with sufficient water to bring the total volume to 1 mL.
The source holds these as a separate data set.

Structures are written as SMILES. Read-outs that look alike come from different tables or passages of the source.

Regarding `Cc1cccc([C@H](C)c2cnc[nH]2)c1C` [dexmedetomidine, (S)-4-[1-(2,3-dimethylphenyl)ethyl]-3H-imidazole], the “dexmedetomidine retained after autoclaving in moist steam” value is, setting by setting: (5.5 mg/mL sodium chloride and 28 gram/mL sodium acetate and 320 mg/mL glacial acetic acid as buffer) 90.1%; (solution comprising 9 mg/mL sodium chloride, Nexcel bag) 93%. Besides, the “retention of the dexmedetomidine after autoclaving in moist steam” value is, setting by setting: (buffer (28 g/mL sodium acetate and 320 mg/mL glacial acetic acid) with dextrose as tonicity adjusting agent, Nexcel bag) 99.4%; (buffer (28 g/mL sodium acetate and 320 mg/mL glacial acetic acid) with sucrose as tonicity adjusting agent, Nexcel bag) 99.0%. Also, the potency loss in data set [1] (CR3 elastomer copolyester ether bags and PVC bags, autoclaving) was 20%. The “drug recovered in MeOH rinse of emptied bags” value in data set [1] (CR3 elastomer copolyester ether bags) is given as “Nearly all”; in data set [1] (PVC bags) it was 1%. The “total percent of impurities” value in data set [1] (autoclaved premixed composition in PVC and CR3 bags) is recorded as “less than 20%”. Moreover, the drug loss in data set [1] (formulation with a buffer system, plastic bags) is on record as ~10%. For the same compound, the “dexmedetomidine lost through adsorption” value in data set [1] (premixed solution in plastic materials) was “up to 20%”. For the same compound, the “solubility in DEHP” value in data set [2] is recorded as “soluble”. In data set [3] (Example 1 solution (dextrose) in Nexcel bag, extrapolated from the accelerated test), the “time the solution will be stable at room temperature” value is given as “about 24 months”. The “adsorption or absorption by the ethylene-vinyl acetate copolymer inner-most bag layer” value in data set [3] (Example 1 solution, Nexcel bag, storage tests) is “not adsorbed or absorbed”.

The values above are taken from patent US9717796B1, “Heat sterilizeable, premixed, ready to use dexmedetomidine solution packaged in a flexible plastic container” (SLYPHARMA, LLC, priority 2016, dated 2017).
